How the values were obtained:
[1] = HepG2 cell viability, resazurin reduction assay; type: cell-based; conditions: human, HepG2 hepatoma cells, approximately 72 hours incubation, read-out: inhibitory dose (ID50), cell viability
Text: Cell viability of HepG2 hepatoma cells was quantified in order to assess the toxicity of the compounds at increasing concentrations. The used assay is described in detail in the “Experimental Evaluation of Cytotoxicity of Compounds using Cell-based Assays” section in “Materials and Methods”. This is a relevant assessment not just to discard potential concerns of liver damage (which is a problem reported for many drugs) but also because of the long-term nature of the treatments that patients suffering from TTR-mediated amyloidoses need to undertake.
Adherent human hepatoma cells HepG2 were cultured in DMEM (Dulbecco's Modified Eagle's Medium) with 10% fetal bovine serum (FBS), 100 U/mL penicillin, […] streptomycin, and 1 mM sodium pyruvate. The cells were grown in 75 cm^2 culture flasks at 37° C., in an atmosphere of 5% CO2, and subcultured twice a week using a trypsin-EDTA solution.
Upon 3 to 4 days of growth and reaching approximately 90% confluence, HepG2 cells were plated in 96-well microplates with cell density of 12×10^3 cells/well and in a volume of 100 μL per well.
The compounds are dissolved in DMSO and subsequently diluted in DMEM (in 9 intermediate […] concentrations). After adhesion of HepG2 cells to the microplates, […] 100 μL of each solution of intermediate compound concentration were added to each well (in quadruplicate). Positive controls were done with 10 wells containing only cells; solvent controls resulted from the analysis of the three highest DMSO concentrations tested and were carried out in triplicate.
After addition of the compounds to the cells, the microplates were incubated for approximately 72 hours at 37° C. in an atmosphere of 5% CO2 until the cell viability assay was performed.
The cell viability of HepG2 cells in the presence of test compounds was assessed by the resazurin reduction assay. Resazurin is a redox indicator that is converted into resorufin through reduction reactions of metabolically active cells. In the oxidized form it presents a purplish blue color, while the reduced form presents a purple-pink color.
A stock solution of 0.01% resazurin in PBS is diluted 1:10 in incomplete RPMI 1640 cell medium (without addition of antibiotics and FBS). After washing the cells with 200 μL PBS containing Ca^2+ and Mg^2+, 200 μL of resazurin 0.001% are added to the wells. Control runs with incomplete RPMI 1640 medium only and (without cells) are done in triplicate. […]
To quantify the reduction of resazurin to resorufin, microplate absorbance readings were taken at two wavelengths, 540 nm (reduced form) and 630 nm (oxidized form), in a Biotek spectrophotometer microplate reader. The percentage of viable cells at each compound concentration is determined using the formula: […]

[2] = target: T1, thyroxine-binding globulin (TBG) (Homo sapiens, UniProt P05543); experiment: Thyroxine (T4) binding competition by gel electrophoresis in plasma, TBG band; conditions: [125I]T4, in presence of compound
T1 construct: from tissue; host or cells: human plasma
T1 sequence (P05543 21-415): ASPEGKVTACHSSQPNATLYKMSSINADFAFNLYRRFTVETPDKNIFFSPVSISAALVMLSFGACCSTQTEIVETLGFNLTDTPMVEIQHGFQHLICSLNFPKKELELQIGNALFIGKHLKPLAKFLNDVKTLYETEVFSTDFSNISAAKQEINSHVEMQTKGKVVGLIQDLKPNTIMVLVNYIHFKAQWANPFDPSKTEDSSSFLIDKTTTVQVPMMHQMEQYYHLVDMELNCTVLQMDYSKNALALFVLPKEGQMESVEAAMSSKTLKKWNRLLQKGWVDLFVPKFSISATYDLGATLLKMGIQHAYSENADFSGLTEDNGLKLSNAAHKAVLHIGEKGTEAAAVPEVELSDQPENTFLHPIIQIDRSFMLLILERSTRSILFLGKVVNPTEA
Experimental: Briefly, upon incubation of human plasma in the presence of the test compounds and radio-labeled T4 ([125I]T4), the samples are subjected to native PAGE. After electrophoresis, the gels are dried, subjected to phosphor imaging, and the intensity of the protein bands is then compared. […] The intensity of the bands decreases, as compared to the control samples (absence of compound), if the compound binds to the protein(s) competing with T4.
FIG. 24 presents the results of these experiments, where the bands in the gel correspond to the major T4 binding plasma proteins. […] The results were analyzed by calculation of the TTR/total (TTR+ALB+TBG) ratio for each sample collected at different time points. The displacement of T4 from TTR is calculated and plotted as the difference between the average of ratios of TTR/total protein for each control sample and the average of the ratios of TTR/total protein. […]
Five (5) μL of human plasma plus 0.25-0.5 μL of [125I]T4 (specific radioactivity 1250 μCi/m; concentration 320 μCi/mL; Perkin Elmer, Boston, Mass., U.S.A.) plus 5 μL of PBS with glycerol 50% are incubated for 1 hour at room temperature (RT) and the samples are subjected to native PAGE. After electrophoresis, the gels are dried, subjected to phosphor imaging (Typhoon 8600; Molecular Diagnostics, Amersham Biosciences), and analyzed using the ImageQuant program version 5.1. […]

| T4 bound to TBG [2] [%] | Structure (SMILES) | IC50 at 72 h [1] [µM] |
| --- | --- | --- |
| 54.3 | COc1cc(/C=C2\SC(=S)N(CC(=O)O)C2=O)cc(Cl)c1O [AT50-A00 (Z), (Z)-3-hydroxycarbonylmethyl-5-(3′-chloro-4′-hydroxy-5′-methoxyphenylmethylidene)-2-thioxothiazolidin-4-one] | > 400 |
| 53.6 | O=C(O)c1ccc2nc(-c3cc(Cl)cc(Cl)c3)oc2c1 [Tafamidis, reference compound] | ~250 |

Source: patent publication US11584727B2, “2-thioxothiazolidin-4-one derivatives active as transthyretin ligands and uses thereof” (BSIM Therapeutics, S.A., priority 2014, dated 2023)
